# Experiments:
# Type in all cases: physicochemical
# [1] = Recrystallization water by Dynamic Vapour Sorption (DVS)
# Experimental: (§1) Co-micronized microparticles and reference micronized glycopyrronium bromide were exposed to the following conditions:
# (§2) Thin layer (˜0.5 cm) in open tray for 3 days at 30° C./65% relative humidity (RH);
# (§3) Thin layer (˜0.5 cm) in open tray for 4 hours at 25° C./90% RH
# (3) recrystallization of water using a Dynamic Vapour Sorption (DVS) instrument (Mettler Toledo GmbH, Switzerland).
# [2] = Aerosol performance by Next Generation Impactor (NGI) from multidose dry powder inhaler; conditions: for Mid Fine Particle Mass: between 2.0 and 5.0 micron; for Fine Particle Mass: particle size equal to or lower than 5.0 micron
# Experimental: It is calculated by the percentage ratio of the fine particle mass (formerly fine particle dose) to the delivered dose.
# The delivered dose is calculated from the cumulative deposition in the apparatus, while the fine particle mass is calculated from the deposition of particles having a diameter <5.0 microns.
# After aerosolization of 3 doses from the inhaler device, the NGI apparatus was disassembled and the amounts of drug deposited in the stages were recovered by washing with a solvent mixture and then quantified by High-Performance Liquid Chromatography (HPLC).
# [3] = Particle size distribution (PSD) by Malvern analysis, initially and after open-tray exposure
# Experimental: The size of the particles active is determined by measuring the characteristic equivalent sphere diameter, known as volume diameter, by laser diffraction. […] However, other equivalent apparatus may be used.
# as §2, §3
# (i) particle size distribution (PSD) in terms of d(v0.1), d(v0.5) and d(v0.9) by Malvern analysis, […]
# [4] = Specific Surface Area (SSA) by BET nitrogen adsorption
# Experimental: as §1, §2, §3
# (2) Specific Surface Area (SSA) by Brunauer-Emmett-Teller (BET) nitrogen adsorption method according to a known procedure, and […]
# [5] = Uniformity of distribution of the active ingredients in the blend by HPLC
# Experimental: It is usually determined according to known methods, for instance by taking samples from different parts of the powder and testing the component by HPLC or other equivalent analytical methods.
# The uniformity of distribution of the active ingredients was evaluated by withdrawing 12 samples from different parts of the blend and evaluated by HPLC.
# [6] = Open thin layer 3 days at 30° C./65% RH
# [7] = Example 3 formulation (6/100/12.5 μg)
# [8] = Example 4 formulation (6/100/25 μg)
# [9] = Open thin layer 4 hours at 25° C./90% RH
smiles,measurement,setting,value
"C[N+]1(C)CCC(OC(=O)C(O)(c2ccccc2)C2CCCC2)C1 (racemic) [GB, glycopyrronium bromide]",Re-crystallization water,[1]; Initial,0.12 % w/w
same,Re-crystallization water,[1]; [6],0.02% w/w
same,Extrafine Particle Fraction <1 μm,[2]; [7],15.4%
same,Extrafine Particle Fraction <2 μm,[2]; [7],37.6%
same,Extrafine Particle Mass <1 μm,[2]; [7],1.8 µg
same,Extrafine Particle Mass <2 μm,[2]; [7],4.39 µg
same,Fine Particle Fraction,[2]; [7],67.2%
same,MMAD,[2]; [7],1.92 μm
same,Mid Fine particle Fraction,[2]; [7],29.6%
same,Mid Fine Particle Mass,[2]; [7],3.46 µg
same,Delivered Dose,"[2]; Example 3 formulation (6/100/12.5 μg), mean±S.D",11.66 (±0.4) μg
same,Fine Particle Mass,[2]; [7],7.85 µg
same,Delivered Dose,[2]; [8],21.30 µg
same,Extrafine Particle Fraction <1 μm,[2]; [8],8.2%
same,Extrafine Particle Fraction <2 μm,[2]; [8],25.8%
same,Extrafine Particle Mass <1 μm,[2]; [8],1.75 µg
same,Extrafine Particle Mass <2 μm,[2]; [8],5.49 µg
same,Fine Particle Fraction,[2]; [8],50.7%
same,MMAD,[2]; [8],2.15 μm
same,Mid Fine particle Fraction,[2]; [8],27.9%
same,Mid Fine Particle Mass,[2]; [8],5.94 µg
same,Fine Particle Mass,[2]; [8],10.8 µg
same,PSD D(v0.9),[3]; Initial,3.95 μm
same,PSD d(v0.1),[3]; Initial,0.60 μm
same,PSD d(v0.5),[3]; Initial,1.54 μm
same,PSD D(v0.9),[3]; [9],1657 μm
same,PSD d(v0.1),[3]; [9],2.74 μm
same,PSD d(v0.5),[3]; [9],156 μm
same,PSD D(v0.9),[3]; [6],7.59 μm
same,PSD d(v0.1),[3]; [6],1.00 μm
same,PSD d(v0.5),[3]; [6],3.91 μm
same,SSA,[4]; Initial,7.31 m^2/g
same,SSA,[4]; [6],1.85 m^2/g
"CCC(=O)OCC(=O)[C@@]1(OC(=O)CC)[C@@H](C)C[C@H]2[C@@H]3CCC4=CC(=O)C=C[C@]4(C)[C@@]3(Cl)[C@@H](O)C[C@@]21C [BDP, beclometasone dipropionate]",Uniformity of distribution,"[5]; Example 3 formulation (FF 6 μg/BDP 100 μg/GB 12.5 μg per 10 mg carrier), 12 samples, mean value±RSD",101.8 (±1.1)
same,Uniformity of distribution,[5]; Example 4 formulation (FF 6 μg/BDP 100 μg/GB 25 μg per 10 mg carrier),100.2 (±1.2)

# From patent publication US10350164B2, “Process for preparing a dry powder formulation comprising an anticholinergic, a corticosteroid and a beta-adrenergic” (CHIESI FARMACEUTICI S.p.A., priority 2017, dated 2019)
